Results: patent US7579018B2, “Microbiological control in aqueous systems” (Albemarle Corporation, priority 2000, dated 2009)

What was measured:
[1] = Storage of tablets at 50° C. for 30 days, titration of active bromine, Example 24; assay type: physicochemical
Description: 1,3-Dibromo-5,5-dimethylhydantoin was blended with micronized polyethylene wax (MPP-611) such that the blend contained 3 wt % of the wax. A sample of the blend (5 g) was introduced to a die made from Hastelloy® C alloy, and compacted to a pressure of 5000 psi. Three more samples (5 g each) were compacted in the same manner, and each time a single tablet was extracted from the die after the pressure had been released. In each case, before filling the die, its interior surfaces were lightly dusted with micronized polypropylene wax to serve as a lubricant. The tablets were manually broken into two equally-sized pieces. One half of each tablet was crushed into a powder with a mortar and pestle, and the powder was titrated to determine its wt % of active bromine. The other half of each tablet was placed in a sealed glass vial and placed in an oven at 50° C. After 30 days, the samples were removed from the oven, ground up, and titrated to determine its wt % of active bromine. For comparative purposes, a control sample of commercially produced 1,3-dibromo-5,5-dimethylhydantoin having an average particle size of about 64.5μ (containing no micronized polyethylene wax) was subjected to the same operations.
Table 16 lists the results obtained for four samples of 1,3-dibromo-5,5-dimethylhydantoin/3 wt % micronized polyethylene wax blends, along with the control sample containing no additive.

[2] = “free chlorine” (Hach Method 8021) and “total chlorine” (Hach Method 8167) in dosed simulated cooling water, Example 1; assay type: physicochemical; conditions: simulated cooling water pH 9.1, 38° C.
Description: The standard tests for determination of “free chlorine” and “total chlorine” are based on classical test procedures devised by Palin in 1974. See A. T. Palin, “Analytical Control of Water Disinfection With Special Reference to Differential DPD Methods For Chlorine, Chlorine Dioxide, Bromine, Iodine and Ozone”, J. Inst. Water Eng., 1974, 28, 139. While there are various modernized versions of the Palin procedures, the version of the tests for “free chlorine” and “total chlorine” used and to be used as the standard in connection with this invention, are fully described in Hach Water Analysis Handbook, 3rd edition, copyright 1997. The procedure for “free chlorine” is identified in that publication as Method 8021 appearing on page 335, whereas the procedure for “total chlorine” is Method 8167 appearing at page 379. Briefly, the “free chlorine” test involves introducing to the halogenated water a powder comprising DPD indicator powder and a buffer. “Free chlorine” present in the water reacts with the DPD indicator to produce a red to pink coloration. The intensity of the coloration depends upon the concentration of “free chlorine” species present in the sample. This intensity is measured by a calorimeter calibrated to transform the intensity reading into a “free chlorine” value in terms of mg/L Cl2. Similarly, the “total chlorine” test also involves use of DPD indicator and buffer. In this case, KI is present with the DPD and buffer whereby the halogen species present, including nitrogen-combined halogen, reacts with KI to yield iodine species which turn the DPD indicator to red/pink. The intensity of this coloration depends upon the sum of the “free chlorine” species and all other halogen species present in the sample. Consequently, this coloration is transformed by the colorimeter into a “total chlorine” value expressed as mg/L Cl2.
DBDAH and BCDMH Test Procedure • 1. To determine the amount of species present in the water which respond to the “free chlorine” and “total chlorine” tests, the water sample should be analyzed within a few minutes of being taken, and preferably immediately upon being taken. • 2. Hach Method 8021 for testing the amount of species present in the water sample which respond to the “free chlorine” test involves use of the Hach Model DR 2010 calorimeter. The stored program number for chlorine determinations is recalled by keying in “80” on the keyboard, followed by setting the absorbance wavelength to 530 nm by rotating the dial on the side of the instrument. Two identical sample cells are filled to the 10 mL mark with the water under investigation. One of the cells is arbitrarily chosen to be the blank. Using the 10 mL cell riser, this is admitted to the sample compartment of the Hach Model DR 2010, and the shield is closed to prevent stray light effects. Then the ZERO key is depressed. After a few seconds, the display registers 0.00 mg/L Cl2. To second cell, the contents of a DPD Free Chlorine Powder Pillow are added. This is shaken for 10-20 seconds to mix, as the development of a pink-red color indicates the presence of species in the water which respond positively to the DPD test reagent. Within one minute of adding the DPD “free chlorine” reagent to the 10 mL of water in the sample cell, the blank cell used to zero the instrument is removed from the cell compartment of the Hach Model DR 2010 and replaced with the test sample to which the DPD “free chlorine” test reagent was added. The light shield is then closed as was done for the blank, and the READ key is depressed. The result, in mg/L Cl2 is shown on the display within a few seconds. This is the “free chlorine” level of the water sample under investigation. • 3. Hach Method 8167 for testing the amount of species present in the water sample which respond to the “total chlorine” test involves use of the Hach Model DR 2010 calorimeter. […]

[3] = Iodometric titration of clear saturated stock solutions; assay type: physicochemical; conditions: 1 gram powder slurried in 100 mL deionized water, stirred 20 minutes, filtered
Experimental: Stock solutions of DBDMH and of BCDMH were prepared by slurrying 1 gram of the respective powders in 100 mL of deionized water. After stirring for 20 minutes, the insolubles were filtered to yield clear saturated stock solutions of DBDMH and BCDMH, respectively. Iodometric titration of the stock solutions using the potassium iodide-sodium thiosulfate method indicated the DBDMH solution contained 580 mg/L (as total chlorine), and the BCDMH solution contained 1100 mg/L (as total chlorine).

heterotrophic bacteria = assay: Cooling tower field trial, Example 2: heterotrophic bacteria plate counts
Description: The effectiveness of DBDMH and of BCDMH in microbiological control in cooling tower water was investigated in comparative tests. The cooling tower consisted of two 500-ton units in a crossflow design. The total system-contained volume was 14,000 gallons, and the tower contained medium efficiency film fill. Water from the tower cooled the coils of two 300-ton air conditioners (chillers). The tower typically operated at a pH of about 9.1 and 4 cycles of concentration. Blowdown was controlled by conductivity. Make-up water consisted of softened city water and which was of good quality. The make-up water was very low in calcium (<10 mg/L) but high in pH (8.7). The alkalinity was 145 mg/L (as CaCO3), and the silica level was 28 mg/L. The tower employed a conventional polyphosphate/molybdate/phosphonate program to provide corrosion and deposit control.
The BCDMH (20 lbs) was introduced to the water using 20-gram, 1-inch tablets charged to a solid halogen feeder (Neptune model BT-40, Neptune Chemical Pump Co., Inc., Lansdale, Pa.). Before each dose, the cooling tower water was sampled and enumerated for heterotrophic bacteria plate counts. Then the tower was slug dosed three times a week with BCDMH. Slug dosing was accomplished by diverting through the feeder containing the tablets a sidestream of the recirculating water for about 1 to 5 hours until a “free chlorine” dose of about 0.5 mg/L (as “free chlorine”) was obtained. The “total chlorine” dose was measured at the same time. After each dose the cooling water was sampled and enumerated for heterotrophic bacteria plate counts. As necessary, the feeder was replenished with more BCDMH tablets.
For example, before the biocide dose the bacteria levels in the bulk water ranged from 10^5 to 10^4 CFUs/mL. After the biocide dose the bacteria levels in the bulk water were reduced to 10^4 to 10^3.
After emptying the feeder of BCDMH tablets, 20 lbs of DBDMH granules was charged into the feeder. Thereupon the same procedure as described above for the BCDMH was carried out except for the fact that is was unnecessary to add any additional DBDMH to the feeder during the 30-day test period. In fact, the total weight of DBDMH consumed during the test was only 7 lbs.

[4] = dosed to 1 mg/L as total chlorine, Time 0 hr
[5] = Time 0.5 hr, percentage of Time 0 value
[6] = Time 1 hr, percentage of Time 0 value
[7] = Time 1.5 hr, percentage of Time 0 value
[8] = Time 2 hr, percentage of Time 0 value
[9] = Time 3 hr, percentage of Time 0 value
[10] = Time 4 hr, percentage of Time 0 value
[11] = Time 5 hr, percentage of Time 0 value
[12] = Time 6 hr, percentage of Time 0 value

**Q.** Which “Wt % Active Bromine, After 30 days” value ([1]; sealed glass vial in oven at 50° C., 30 days) does the source give for `CC1(C)C(=O)N(Br)C(=O)N1Br` [Control, 1,3-dibromo-5,5-dimethylhydantoin] here?
**A.** Its value is 55.2 Wt %.

**Q.** And the “Wt % Active Bromine, Initial” value ([1]; tablet half crushed and titrated before storage)?
**A.** The value was 55.3 Wt %.

**Q.** With `CC1(C)C(=O)N(Cl)C(=O)N1Br` [BCDMH, N,N′-bromochloro-5,5-dimethylhydantoin, reference compound] as the compound, how does the “Free Cl2” value [2, 4] read?
**A.** Its value is 23.1.

**Q.** What about the “Total Cl2” value [2, 4] of the same compound?
**A.** The value was 100.

**Q.** And the “% hydrolysis to Free Cl2” value ([2]; Time 0 hr)?
**A.** The value was 23.1%.

**Q.** And the “% hydrolysis to Free Cl2” value ([2]; Time 0.5 hr)?
**A.** The value was 24.7%.

**Q.** And the “Free Cl2” value [2, 5]?
**A.** Its value is 25.6%.

**Q.** And the “Total Cl2” value [2, 5]?
**A.** The value was 104%.

**Q.** And the “% hydrolysis to Free Cl2” value ([2]; Time 1 hr)?
**A.** The value was 23.1%.

**Q.** What about the “Free Cl2” value [2, 6] of the same compound?
**A.** The value was 23.1%.

**Q.** What about the “Total Cl2” value [2, 6] of the same compound?
**A.** Its value is 100%.

**Q.** And the “% hydrolysis to Free Cl2” value ([2]; Time 1.5 hr)?
**A.** Its value is 19.4%.

**Q.** What about the “Free Cl2” value [2, 7] of the same compound?
**A.** Its value is 17.9%.

**Q.** And the “Total Cl2” value [2, 7]?
**A.** The value was 92.3%.

**Q.** What about the “% hydrolysis to Free Cl2” value ([2]; Time 2 hr) of the same compound?
**A.** Its value is 18.8%.

**Q.** And the “Free Cl2” value [2, 8]?
**A.** The value was 16.6%.

**Q.** And the “Total Cl2” value [2, 8]?
**A.** The value was 88.5%.

**Q.** What about the “% hydrolysis to Free Cl2” value ([2]; Time 3 hr) of the same compound?
**A.** The value was 18.8%.

**Q.** And the “Free Cl2” value [2, 9]?
**A.** Its value is 16.6%.

**Q.** And the “Total Cl2” value [2, 9]?
**A.** Its value is 88.5%.

**Q.** And the “% hydrolysis to Free Cl2” value ([2]; Time 4 hr)?
**A.** Its value is 38.7%.

**Q.** And the “Free Cl2” value [2, 10]?
**A.** Its value is 30.7%.

**Q.** What about the “Total Cl2” value [2, 10] of the same compound?
**A.** The value was 79.5%.

**Q.** What about the “% hydrolysis to Free Cl2” value ([2]; Time 5 hr) of the same compound?
**A.** The value was 20%.

**Q.** And the “Free Cl2” value [2, 11]?
**A.** Its value is 15.4%.

**Q.** And the “Total Cl2” value [2, 11]?
**A.** Its value is 76.9%.

**Q.** What about the “% hydrolysis to Free Cl2” value ([2]; Time 6 hr) of the same compound?
**A.** The value was 14.3%.

**Q.** And the “Free Cl2” value [2, 12]?
**A.** Its value is 10.2%.

**Q.** What about the “Total Cl2” value [2, 12] of the same compound?
**A.** The value was 71%.

**Q.** What about the “halogen content of saturated stock solution (as total chlorine)” value [3] of the same compound?
**A.** Its value is 1100 mg/L.

**Q.** And the “average reduction of heterotrophic bacterial levels in the bulk water” value (heterotrophic bacteria; biocide dose 0.5 mg/L “free chlorine”)?
**A.** Its value is 1 order of magnitude.

**Q.** What about the “bacteria levels in the bulk water after the biocide dose” value (heterotrophic bacteria; biocide dose 0.5 mg/L “free chlorine”, before dose 10^5 to 10^4 CFUs/mL) of the same compound?
**A.** Its value is 10^4 to 10^3 CFUs/mL.

**Q.** What about the Bacteria reduction (heterotrophic bacteria; slug dose 3 times/week, 0.5 ppm free Cl2, cooling tower water) of the same compound?
**A.** The Bacteria reduction was 1.5-2 logs.
